Reference: patent US20160374981A1, “ANORECTIC AGENT” (Nippon Suisan Kaisha, Ltd., priority 2012, published 2016)

Legend:
Format in all cases: in vivo
[1] = Single-dose oral administration of free fatty acids to SD rats: food intake; settings: male SD rats
Experimental: Using a 1.5% (by weight) aqueous solution of a fatty acid ester of glycerol (RYOTO® POLYGLYESTER; product of Mitsubishi-Kagaku Foods Corporation) as a solvent, a free fatty acid form of palmitoleic acid (C16:1), a free fatty acid form of palmitic acid (C16:0), a free fatty acid form of oleic acid (C18:1), a free fatty acid form of lauric acid (C12:0), a free fatty acid form of decenoic acid (C10:1), and a free fatty acid form of linoleic acid (C18:2), all being products of Sigma, were added to the solvent and uniformly emulsified by sonication in an ice bath to thereby prepare dosing samples.
(§1) Male Sprague-Dawley rats (hereinafter referred to as SD rats) were used in the experiment. Nine-week-old SD rats (Japan SLC, Inc.) were purchased and preliminarily reared for a week in individual cages. During the preliminary rearing period, the animals were allowed free access to the solid feed Labo MR Stock (Nosan Corporation) and distilled water through water bottles.
After the preliminary rearing, the 10-week-old SD rats were divided into the following seven groups (10 animals per group) considering their body weight: a control group administered with only the solvent (hereinafter referred to as “control group”); a group administered with palmitoleic acid (C16:1) (hereinafter “C16:1 administered group”); a group administered with palmitic acid (C16:0) (hereinafter “C16:0 administered group”); a group administered with oleic acid (C18:1) (hereinafter “C18:1 administered group”); a group administered with lauric acid (C12:0) (hereinafter “C12:0 administered group”); a group administered with decenoic acid (C10:1) (hereinafter “C10:1 administered group”); and a group administered with linoleic acid (C18:2) (hereinafter “C18:2 administered groups”); these groups of rats were subjected to the main test. In the main test, the solvent or each fatty acid under test was orally administered in a single dose through a gastric tube on the very day of the experiment. To the control group of SD rats, the solvent was orally administered at a dose of 10 mL/kg per animal. The test subjects, C16:1, C16:0, C18:1, C12:0, C10:1 and C18:2, each taken in an amount of 150 mg or 500 mg, were added to 10 mL of the solvent and emulsified; the emulsion was orally administered to the SD rats in a dose of 10 mL/kg per animal and a measurement was conducted both 30 minutes and an hour later. The amount of food intake (the amount of food supplied immediately after the dosing of sample minus the amount of food at a specified time after the dosing of sample) was measured both 30 minutes and an hour after oral administration of the test sample.

CCK mRNA = assay: Small intestine CCK mRNA expression level in SD rats after single oral dose (real-time PCR); settings: male SD rats; an hour after single oral dose 500 mg/kg; versus control group (FIG. 14)
Experimental: (§2) Using a 1.5% (by weight) aqueous solution of a fatty acid ester of glycerol (RYOTO® POLYGLYESTER; product of Mitsubishi-Kagaku Foods Corporation) as a solvent, a free fatty acid form of palmitoleic acid (C16:1) and a free fatty acid form of oleic acid (C18:1), both being products of Sigma, were added to the solvent and uniformly emulsified by sonication in an ice bath to thereby prepare dosing samples.
(§3) Male Sprague-Dawley rats (hereinafter referred to as SD rats) were used in the test. Nine-week-old SD rats (Japan SLC, Inc.) were purchased and preliminarily reared for a week in individual cages. […]
(§4) After the preliminary rearing, the 10-week-old SD rats were divided into the following three groups (10 animals per group) considering their body weight: a control group administered with only the solvent (hereinafter referred to as “control group”); a group administered with palmitoleic acid (C16:1) (hereinafter “C16:1 administered group”); and a group administered with oleic acid (C18:1) (hereinafter “C18:1 administered group”); these groups of rats were subjected to the main test. […] With the level of gene expression in the control group taken as unity, the relative expression levels of respective genes in the C16:1 administered group or 18:1 administered group were calculated. […]

cholecystokinin (CCK) = assay: Blood cholecystokinin (CCK) level in SD rats after single oral dose (ELISA); settings: male SD rats, versus control group (FIG. 13)
Experimental: as §2, §3, §4

[2] = Long-term oral administration of free fatty acids to KKAy mice: food intake and body weight; settings: male KKAy mice
Experimental: Using a 1.5% (by weight) aqueous solution of a fatty acid ester of glycerol (RYOTO®POLYGLYESTER; product of Mitsubishi-Kagaku Foods Corporation) as a solvent, a free fatty acid form of palmitoleic acid (C16:1), a free fatty acid form of palmitic acid (C16:0), a free fatty acid form of gadoleic acid (C20:1), and a free fatty acid form of erucic acid (C22:1), all being products of Sigma with purities of 99% and more, were added to the solvent and uniformly emulsified by sonication in an ice bath to thereby prepare dosing samples.
as §1, with “Male, spontaneously diabetic model mice KKAy/Ta” for “Male Sprague-Dawley rats”, “KKAy mice)” for “SD rats)”, “test. Five-week-old KKAy mice (CLEA Japan,” for “experiment. Nine-week-old SD rats (Japan SLC,”
After the preliminary rearing, the 6-week-old KKAy mice were divided into the following five groups (10 animals per group) considering their body weight: a control group administered with only the solvent (hereinafter referred to as “control group”); a group administered with palmitoleic acid (C16:1) (hereinafter “C16:1 administered group”); a group administered with palmitic acid (C16:0) (hereinafter “C16:0 administered group”); a group administered with gadoleic acid (C20:1) (hereinafter “C20:1 administered group”); and a group administered with erucic acid (C22:1) (hereinafter “C22:1 administered group”); these groups of mice were subjected to the main test. In the main test, the mice of each group were reared for 4 weeks under the environment of light (12 hr) and dark (12 hr) cycles as they were allowed free access to the powdered feed Labo MR Stock (Nosan Corporation) and distilled water through water bottles. In the process, the solvent or each fatty acid under test was orally administered through a gastric tube at 10 a.m. every day. […]
During the 4-week rearing period, the amount of food supplied was measured at days 1, 5, 9, 12, 16, 19, 23 and 26 after dosing and the amount of leftover was measured on the next day, with the respective measurements being conducted for each feeder. The amount of daily food intake was calculated from the difference between the values for two consecutive measurements. The “average food intake” is the average of the food intakes as measured on the respective days of measurement. […] The percent body weight gain was calculated by the formula [(final body weight−initial body weight)/initial body weight]×100. The “final body weight” is the body weight as measured after the end of the 4-week rearing period whereas “initial body weight” is the body weight as measured at the start of the test.

[3] = an hour after single oral dose 150 or 500 mg/kg, comparison with other fatty acids, versus control group (FIG. 11)

CCCCCCCCCCCC(=O)O [C12:0, lauric acid, reference compound]
food intake [1, 3]: no significant drops

CCCCCCCCCCCCCCCC(=O)O [C16:0, palmitic acid, reference compound]
food intake (test for dose-dependency) ([1]; 30 minutes after single oral dose 50, 150 or 500 mg/kg, compared with control group and C16:0 administered group (FIG. 7)): decreased significantly in a dose-dependent manner

CCCCCC/C=C\CCCCCCCC(=O)O [C16:1, palmitoleic acid]
small intestine CCK mRNA expression level (CCK mRNA): increased significantly
blood CCK level (cholecystokinin (CCK); an hour after single oral dose 500 mg/kg): increased significantly
food intake ([1]; 30 minutes after single oral dose 500 mg/kg, compared with control group and C16:0 administered group (FIGS. 5 and 6)): significant drop in food intake
food intake ([1]; 30 minutes after single oral dose 150 or 500 mg/kg, compared with control group and C18:1 administered group (FIGS. 8-9)): significant drops in food intake
food intake ([1]; an hour after single oral dose 500 mg/kg, compared with control group and C16:0 administered group (FIGS. 5 and 6)): significant drop in food intake
food intake ([1]; an hour after single oral dose 150 or 500 mg/kg, compared with control group and C18:1 administered group (FIGS. 8, 10)): significant drops in food intake
food intake [1, 3]: significant drops in food intake
food intake ([2]; 300 mg in 10 mL solvent, 10 mL/kg oral every day, 4 weeks, compared with control group (FIGS. 1 and 2)): significant drops in the food intake
percent body weight gain ([2]; 4 weeks after administration, compared with control group (FIG. 4)): significant drop in the percent body weight gain
daily averages for the amount of food intake ([2]; daily oral administration, 4 weeks, FIG. 2, P<0.05): significant drop in the amount of food intake
body weight ([2]; daily oral administration, second to fourth week of dosing, compared with control group (FIG. 3)): significant drop in body weight

CCCCC/C=C\C/C=C\CCCCCCCC(=O)O [C18:2, linoleic acid, reference compound]
food intake [1, 3]: no significant drops

CCCCCCCC/C=C\CCCCCCCC(=O)O [oleic acid, reference compound]
blood CCK level (cholecystokinin (CCK); an hour after single oral dose 150 or 500 mg/kg): no significant elevation

decenoic acid [C10:1, reference compound]
food intake [1, 3]: no significant drops
